Reference: ChEMBL document CHEMBL3045430, “Natural products-based insecticidal agents 11. Synthesis and insecticidal activity of novel 4α-arylsulfonyloxybenzyloxy-2β-chloropodophyllotoxin derivatives against Mythimna separata Walker in vivo” (2011)
Calls of active or inactive are those of the source. The rule behind the calls is not given here.

Key:
[1] = test system: Mythimna separata; assay: In vivo insecticidal activity against pre-third-instar larval stage of Mythimna separata (Oriental armyworm) in corn leaves assessed as induction of slim and wrinkled larval bodies at 1 mg/ml treated for 3 secs before larval infestation on corn leaves measured after 48 hr by leaf-dipping method; assay type: functional, organism-based
[2] = test system: Mythimna separata; assay: In vivo insecticidal activity against pre-third-instar larval stage of Mythimna separata (Oriental armyworm) in corn leaves assessed as corrected mortality rate at 1 mg/ml treated for 3 secs before larval infestation on corn leaves measured after 20 days by leaf-dipping method; assay type: functional; conditions: 480 h
[3] = test system: Mythimna separata; assay: In vivo insecticidal activity against pre-third-instar larval stage of Mythimna separata (Oriental armyworm) in corn leaves assessed as corrected mortality rate at 1 mg/ml treated for 3 secs before larval infestation on corn leaves measured after 35 days by leaf-dipping method; assay type: functional; conditions: 840 h
[4] = test system: Mythimna separata; assay: In vivo insecticidal activity against pre-third-instar larval stage of Mythimna separata (Oriental armyworm) in corn leaves assessed as corrected mortality rate at 1 mg/ml treated for 3 secs before larval infestation on corn leaves measured after 10 days by leaf-dipping method; assay type: functional; conditions: 240 h
[5] = test system: Mythimna separata; assay: In vivo insecticidal activity against pre-third-instar larval stage of Mythimna separata (Oriental armyworm) in corn leaves assessed as induction of malformed pupae at 1 mg/ml treated for 3 secs before larval infestation on corn leaves measured after […] by leaf-dipping method; assay type: functional, organism-based
[6] = test system: Mythimna separata; assay: In vivo insecticidal activity against pre-third-instar larval stage of Mythimna separata (Oriental armyworm) in corn leaves assessed as induction of malformed moth with imperfect wings at 1 mg/ml treated for 3 secs before larval infestation on corn leaves measured after […] by leaf-dipping method; assay type: functional, organism-based

Structure (SMILES)	Activity [1]	mortality at 1000 µg/mL [2]	mortality at 1000 µg/mL [3]	mortality at 1000 µg/mL [4]	Activity [5]	Activity [6]
CCc1ccc(S(=O)(=O)Oc2ccccc2CO[C@H]2c3cc4c(cc3[C@@H](c3cc(OC)c(OC)c(OC)c3)[C@@]3(Cl)C(=O)OC[C@H]23)OCO4)cc1	Active	57.7%	68%	35.7%	–	–
COc1cc([C@@H]2c3cc4c(cc3[C@H](OCc3ccc(OS(=O)(=O)c5cccc([N+](=O)[O-])c5)cc3)[C@H]3COC(=O)[C@]23Cl)OCO4)cc(OC)c1OC	–	38.5%	52%	14.3%	Active	–
COc1cc([C@@H]2c3cc4c(cc3[C@H](O)[C@H]3COC(=O)[C@]23Cl)OCO4)cc(OC)c1OC [2BETA-CHLOROPODOPHYLLOTOXIN]	–	15.4%	36%	14.3%	–	–
COc1cc([C@@H]2c3cc4c(cc3[C@H](OCc3ccccc3OS(=O)(=O)c3ccc(Cl)c([N+](=O)[O-])c3)[C@H]3COC(=O)[C@]23Cl)OCO4)cc(OC)c1OC	Active	57.7%	72%	25%	Active	–
COc1cc([C@@H]2c3cc4c(cc3[C@H](OCc3ccccc3OS(=O)(=O)c3ccc(Cl)cc3)[C@H]3COC(=O)[C@]23Cl)OCO4)cc(OC)c1OC	–	34.6%	48%	7.1%	–	Active
COc1cc([C@@H]2c3cc4c(cc3[C@H](O)[C@H]3COC(=O)[C@H]23)OCO4)cc(OC)c1OC [PODOFILOX]	–	23.1%	40%	17.9%	–	–
CC(=O)O[C@@H]1C[C@H](O)[C@@]23CO[C@@H](O)[C@]1(C)[C@@H]2C[C@@H](O)[C@]1(C)[C@@H]3C(=O)[C@H](OC(C)=O)[C@@]2(C)[C@H](c3ccoc3)C[C@H]3O[C@]321 [TOOSENDANIN]	–	34.6%	48%	17.9%	–	–
COc1cc([C@@H]2c3cc4c(cc3[C@H](OCc3ccccc3)[C@H]3COC(=O)[C@]23Cl)OCO4)cc(OC)c1OC [4ALPHA-BENZYLOXY-2-CHLOROPODOPHYLLOTOXIN]	–	19.2%	52%	10.7%	–	–
COc1cc([C@@H]2c3cc4c(cc3[C@H](OCc3ccccc3OS(=O)(=O)c3ccc(C)cc3)[C@H]3COC(=O)[C@]23Cl)OCO4)cc(OC)c1OC	–	34.6%	52%	21.4%	–	–
COc1cc([C@@H]2c3cc4c(cc3[C@H](OCc3ccccc3OS(=O)(=O)c3ccccc3)[C@H]3COC(=O)[C@]23Cl)OCO4)cc(OC)c1OC	–	26.9%	40%	7.1%	Active	Active
CCc1ccc(S(=O)(=O)Oc2ccc(CO[C@H]3c4cc5c(cc4[C@@H](c4cc(OC)c(OC)c(OC)c4)[C@@]4(Cl)C(=O)OC[C@H]34)OCO5)cc2)cc1	Active	38.5%	56%	14.3%	–	–
COc1cc([C@@H]2c3cc4c(cc3[C@H](OCc3ccc(OS(=O)(=O)c5ccc(Cl)cc5)cc3)[C@H]3COC(=O)[C@]23Cl)OCO4)cc(OC)c1OC	–	38.5%	40%	28.6%	–	–
COc1cc([C@@H]2c3cc4c(cc3[C@H](OCc3ccccc3OS(=O)(=O)c3cccc([N+](=O)[O-])c3)[C@H]3COC(=O)[C@]23Cl)OCO4)cc(OC)c1OC	–	34.6%	36%	10.7%	Active	Active
COc1ccc(S(=O)(=O)Oc2ccc(CO[C@H]3c4cc5c(cc4[C@@H](c4cc(OC)c(OC)c(OC)c4)[C@@]4(Cl)C(=O)OC[C@H]34)OCO5)cc2)cc1	–	34.6%	48%	21.4%	–	–
COc1ccc(S(=O)(=O)Oc2ccccc2CO[C@H]2c3cc4c(cc3[C@@H](c3cc(OC)c(OC)c(OC)c3)[C@@]3(Cl)C(=O)OC[C@H]23)OCO4)cc1	–	34.6%	48%	17.9%	–	Active
COc1cc([C@@H]2c3cc4c(cc3[C@H](OCc3ccc(OS(=O)(=O)c5ccc(Cl)c([N+](=O)[O-])c5)cc3)[C@H]3COC(=O)[C@]23Cl)OCO4)cc(OC)c1OC	–	26.9%	48%	17.9%	–	–
COc1cc([C@@H]2c3cc4c(cc3[C@H](OCc3ccc(OS(=O)(=O)c5ccccc5)cc3)[C@H]3COC(=O)[C@]23Cl)OCO4)cc(OC)c1OC	–	30.8%	36%	14.3%	Active	–
COc1cc([C@@H]2c3cc4c(cc3[C@H](OCc3ccc(OS(=O)(=O)c5ccc(C)cc5)cc3)[C@H]3COC(=O)[C@]23Cl)OCO4)cc(OC)c1OC	–	38.5%	40%	17.9%	Active	–
